Reference: paper PMC10675077, “Antimicrobial Properties of New Polyamines Conjugated with Oxygen-Containing Aromatic Functional Groups” (Molecules, 2023)
Values after ≈ are worked out from the molar mass of the structure shown.

What was measured:
[1] = system: Saccharomyces cerevisiae BY4741/YEplac195-PDR5; test: microbe, parasite or virus in culture; type: cell-based; settings: Saccharomyces cerevisiae, 24 h, read-out: MIC, Yeast, BY4741/ PDR5
Description: (§1) The microorganisms used for the susceptibility tests were the bacteria Escherichia coli JM101 and Staphylococcus aureus BHI, and the yeast Saccharomyces cerevisiae strains BY4741 (MAT a his3Δ1 leu2Δ0 met15Δ0 ura3Δ0 (EUROSCARF)) carrying YEplac195 (from EUROSCARF) or YEPlac195-PDR5 (provided by Ayse Banu Demir, Izmir University of Economics, Turkey) plasmids.
(§2) Bacterial strains were usually maintained and grown in an LB medium (0.5% (w/v) yeast extract, 1% (w/v) bactotryptone, and 1% (w/v) NaCl) at 37 °C. For MIC (minimal inhibitory concentration) and MMC (minimal microbicidal concentration) assays, and for the determination of synergies, overnight growth was carried out in 2% (w/v) bactopeptone (BP), and then the cultures were diluted and incubated for several hours in 2% (w/v) BP for ensuring logarithmic growth. Yeast strains were grown in an SC-ura medium (0.17% (w/v) yeast nitrogen base without amino acids and ammonium sulphate, 0.2% (w/v) drop-out without uracil, 0.5% (w/v) (NH4)2SO4, and 2% (w/v) glucose) at 30 °C. Liquid cultures were incubated with shaking (200 rpm). Solid media also contained 2% (w/v) agar.
(§3) The determination of the MIC for yeast strains was carried out following a similar procedure to that of the polyamines and antifungal reference agents: Serial dilutions of each one in phosphate buffer (20 mM, pH 7.4, 0.5 mL) were prepared and mixed with a suspension of yeast cells (OD600 0.04 in SC-ura 2X (VWR, Atlanta, GA, USA), 0.5 mL). […] Experiments were carried out at least three times in all cases.

[2] = system: Saccharomyces cerevisiae BY4741/YEplac195; test: microbe, parasite or virus in culture; type: cell-based; settings: Saccharomyces cerevisiae; 24 h, 30 °C; average of at least three experiments; read-out: MIC, Yeast, BY4741/ YEplac195
Description: as §1, §2, §3

yeast cells = test: Intracellular ATP by luciferase bioluminescence, yeast; type: cell-based, Saccharomyces cerevisiae; settings: overnight treatment
Protocol: The procedure described by Lehtinen et al. was followed, with the modifications indicated herein. In the case of bacteria, 1.5 OD600 units were incubated overnight in 1 mL of final volume with 5-fold MIC concentrations. Then, the cells were collected, washed 3 times in 20 mM phosphate buffer pH 7.4, and lysed in 200 μL of LS1 (50 mM of glucose, 25 mM of Tris-HCl pH 8.0, and 10 mM of EDTA pH 8.0) containing 5 mg/mL of lysozyme and the same volume of glass beads (425–600 μm), by stirring 10 times for 15 s each. Then, the solution was centrifuged at 14,800× g for 15 min, and the supernatant was used for a luciferase assay. For this purpose, in each well of a microtiter plate, 100 μL of luciferase assay buffer (0.015 M of MgSO4, 0.015 M of KH2PO4 pH 8, 0.004 M of EGTA pH 8, and 2 mM of DTT) was added together to a 50 μL of 0.3 mg/mL luciferin solution in 0.01% (w/v) Triton X-100 and 50 μL of the cell extract. Finally, 15 μL of a 67 μg/mL aqueous solution of luciferase was added. Light emission was immediately detected using a Luminoskan Ascent instrument (Thermo Scientific, Waltham, MA, USA) for 1 s per well. Glass beads, lysozyme, luciferin, and luciferase were purchased from Sigma-Aldrich.
[…] Then, cells were collected and washed as above and resuspended in 500 μL of LS2 (140 mM of NaCl, 1.5 mM of MgCl2, 10 mM of Tris-HCl pH 8.0, and 0.5% (v/v) NP40). Cells were lysed in the presence of 1 volume of glass beads as described above. The next steps were carried out as in the case of bacterial samples.
Experiments were carried out at least in triplicate in all cases, and control drugs and SDS (0.1% (w/v) of the final concentration) were also included.

Escherichia coli JM101 = test: MIC, microdilution in culture medium, E. coli; type: cell-based; settings: Escherichia coli, JM101; 20 h, 37 °C; average of at least three experiments; read-out: MIC, Bacteria, E. coli JM101
Description: as §1, §2
(§4) For the analysis of the antimicrobial activity, the strategies and indications of Cushnie et al. were considered. The standardised method of microdilution in a culture medium was followed to determine the MIC [55]. In bacterial strains, serial dilutions of the compounds to be tested and the control antibiotics were prepared in phosphate buffer (20 mM, pH 7.4, 0.5 mL) and were mixed with a suspension of bacterial cells in a logarithmic growth phase (in 1% BP, 0.5 mL). The final OD600 of the whole solutions were 0.004 and 0.008 for E. coli and S. aureus cultures, respectively. After 20 h of incubation at 37 °C with shaking, the MIC was determined as the lowest concentration of each compound in which no visible bacterial growth was observed.

[3] = system: Staphylococcus aureus BHI; test: MIC, microdilution in culture medium, S. aureus; type: cell-based; settings: Staphylococcus aureus; 20 h, 37 °C; average of at least three experiments; read-out: MIC, Bacteria, S. aureus BHI
Description: as §1, §2, §4

E. coli [4] = test: Lytic activity, time-kill (OD600), E. coli; type: cell-based, Escherichia coli; settings: 5 times the MIC
Protocol: (§5) To determine if the compounds showing microbicidal activity induce cell lysis, the procedure described by Fleeman et al. was followed, with the modifications indicated below. The E. coli and S. aureus strains were grown as in the experiments described earlier. The cells corresponding to 1.5 units of OD600 were collected and resuspended in 1% BP after washing in the same medium. They were incubated in a final volume of 1 mL with concentrations 5 times higher than the MIC of the analysed compounds, and OD600 was monitored over time. Other antimicrobial compounds were also used in this study as controls. The experiments were performed in triplicate.

S. aureus = test: Lytic activity, time-kill (OD600), S. aureus; type: cell-based, Staphylococcus aureus; settings: 5 times the MIC
Protocol: as §5

[5] = system: Yeast (S. cerevisiae strains); test: MIC, yeast (strain not specified); type: cell-based, Saccharomyces cerevisiae; settings: Saccharomyces cerevisiae; yeast strain not specified (Tables 5 and 10); read-out: MIC Yeast
Protocol: as §3

E. coli JM101 = test: Minimal bactericidal concentration, E. coli; type: cell-based, Escherichia coli; settings: Escherichia coli, JM101; overnight incubation, plating on LB; bacteriostatic if growth at 4 times the MIC
Protocol: (§6) Once the MIC was known, the samples were prepared as described in the previous section with polyamine concentrations corresponding to the MIC and half, double, and four times its value. After overnight incubation with the microorganisms, 30 μL of a ten-fold dilution of each one was spread in LB (in the case of bacterial strains) or SC-ura (for yeast strains) plates. They were incubated for 20 h at 37 °C (bacteria) or 48 h at 30 °C (yeasts), and the level of growth was determined. […] Experiments were carried out at least three times.

S. cerevisiae strains = test: Minimal fungicidal concentration, S. cerevisiae strains; type: cell-based, Saccharomyces cerevisiae; settings: fungistatic = growth on SC-ura plates after incubation at four times the MIC
Protocol: as §6

BY4741/YEplac195 = test: Checkerboard titration synergy, BY4741/YEplac195; type: cell-based, Saccharomyces cerevisiae; settings: synergistic when FICI ≤0.5
Protocol: (§7) The combined antimicrobial activity of the test compounds with the antibacterial or antifungal control agents was performed under the same conditions used for the MIC determination and following the procedures described by Carton Herrán, Reis de Sá et al. and Zharkova et al.. For each experiment, 16 samples (4 rows × 4 columns) in a total volume of 0.5 mL were prepared in tubes using an array of combinations between the MIC value and 0 μg/mL of the compound to be tested in each row, and between the MIC value and 0 μg/mL of the reference drug in each column. In this way, a variety of mixtures with different concentrations of them alone or in combination was obtained. Briefly, 0.5 mL of a microorganism culture was added to each one of the samples, and after incubation for 24 h with shaking at the appropriate temperature (37 °C or 30 °C), the tubs were visually inspected, and the OD600 was measured. From this information, the fractional inhibitory concentration index (FICI) was calculated according to the formula FIC index = ([A]/[CMI A]) + ([B]/[CMI B]), where [A] and [B] are respective concentrations of tested polyamine and reference drug in their combination effectively inhibiting the growth of bacteria or yeast, and [MIC A] and [MIC B] are the individual MICs of the tested polyamine and reference drug when they are used alone. An interaction is considered synergistic when the FICI value is ≤0.5 [41, 42].
(§8) To confirm the data obtained in the checkerboard assay, 30 μL of a ten-fold dilution of the tubes containing concentrations of half of the MIC of each one of the compounds alone (polyamine to be tested and reference drug) and one fourth of the MIC of each one in combination were also spread in LB or SC-ura plates (according to the microorganism considered in each case) and incubated at 37 °C or 30 °C. The visualisation of these plates was performed after 24 or 48 h, respectively. All these experiments were carried out in triplicate.

BY4741/PDR5 = test: Checkerboard titration synergy, BY4741/PDR5; type: cell-based, Saccharomyces cerevisiae; settings: synergistic when FICI ≤0.5
Protocol: as §7, §8

E. coli [6] = test: Checkerboard titration synergy, E. coli; type: cell-based, Escherichia coli; settings: synergistic when FICI ≤0.5
Protocol: as §7, §8

[7] = Cytotoxicity, flow cytometry viability assay with propidium iodide; type: cell-based, human; settings: human, Jurkat cells (human lymphocytic leukaemia, ATCC TIB-152), 24 h treatment, average of three experiments, read-out: IC50, cytotoxicity on the human Jurkat cell line
Protocol: The cytotoxicity of the compounds was assessed via flow cytometry with a viability assay using propidium iodide (PI), a DNA-binding fluorescent probe not permeant to live cells, which is commonly used to detect dead cells in a population. The human lymphocytic leukaemia Jurkat cell line (ATCC TIB-152) was obtained from the American Type Cell Culture (Sigma-Aldrich) and grown in suspension in an RPMI 1640 medium (Thermo Fisher Scientific, Waltham, MA, USA) supplemented with L-glutamine, antibiotics, and 10% heat-inactivated foetal calf serum (FCS, Thermo Fisher Scientific, Waltham, MA, USA). For the viability assay, cells were seeded in plastic 96-well plates at […] in an RPMI 1640 medium supplemented with 5% FCS. The cells were treated for 24 h with a range of concentrations of the test compounds or with the same volume of phosphate buffer (PBS) in control wells. After incubation, cell suspensions were washed, resuspended in 400 μL fresh medium, and incubated for 5 min at room temperature in the dark with 3.75 μM PI (Sigma-Aldrich). Cell viability was determined via flow cytometry using a Gallios flow cytometer (Beckman Coulter). PI fluorescence was excited with an argon-ion laser at 488 nm and collected through a 620/630 nm band-pass emission. Cellular events were discriminated from debris using forward scatter (FS) and side scatter (SS) signals. Cell aggregates were excluded from analysis based on FS-integral and FS-peak. The gates applied for population discrimination were set manually based on control samples. For each sample, 10,000 events were collected. For further analysis, the cytometric data were exported to Kaluza 2.1 software (Beckman Coulter, Brea, CA, USA). Dead cells were identified and quantified as PI-positive events. The cytotoxic potency of test compounds was quantified using their IC50 values, i.e., the compound concentration at which cell viability is inhibited by 50%, as calculated via curve fitting and determined with the correlation coefficient (R2) using GraphPad Prism 9.0 software. Experiments were carried out in triplicate.

## C[C@@H]1[C@H](O)[C@@H](C)/C=C/C=C/C=C/C=C/C=C/C=C/C=C/[C@H](O[C@@H]2O[C@H](C)[C@@H](O)[C@H](N)[C@@H]2O)C[C@@H]2O[C@](O)(C[C@@H](O)C[C@@H](O)[C@H](O)CC[C@@H](O)C[C@@H](O)CC(=O)O[C@H]1C)C[C@H](O)[C@H]2C(=O)O [Amphotericin B, reference compound]
[1]
  MIC: 1 µg/mL
[2]
  MIC: 1 µg/mL
Yeast cells; 50-fold the MIC
  Intracellular ATP level relative to untreated cells: dramatic decrease

## CC1(C)S[C@@H]2[C@H](NC(=O)[C@H](N)c3ccccc3)C(=O)N2[C@H]1C(=O)O [Ampicillin, reference compound]
Escherichia coli JM101
  MIC: 2 µg/mL
[3]
  MIC: 0.14 µg/mL
E. coli [4]
  Lytic activity (OD600 over time): OD600 significantly decreased
S. aureus
  Lytic activity (OD600 over time): cellular lysis

## NCCN1CCNCc2cccc(n2)CNCC1 [Compound 5b]
Escherichia coli JM101
  MIC: 10 µg/mL
[3]
  MIC: 200 µg/mL
[1]
  MIC: 110 µg/mL
[2]
  MIC: 110 µg/mL
[5]
  MIC: 110 µg/mL (≈ 441 µM)
E. coli JM101
  MBC: 20 µg/mL (≈ 80.2 µM)
S. cerevisiae strains
  Minimal fungicidal concentration (MFC), S. cerevisiae Strains: Fungistatic
BY4741/YEplac195
  Synergy with Amphotericin B: -
  Synergy with Cycloheximide: positive results and +
  Synergy with Fluconazole: synergic and +
BY4741/PDR5
  Synergy with Amphotericin B: -
  Synergy with Cycloheximide: positive results and +
E. coli [6]
  Synergy with Ciprofloxacin: synergy
[7]
  IC50 at 24 h: 1250 µg/mL (≈ 5020 µM)

## C[C@H]1c2cccc(O)c2C(=O)C2=C(O)[C@]3(O)C(=O)C(C(N)=O)=C(O)[C@@H](N(C)C)[C@@H]3[C@@H](O)[C@@H]21 [Doxycycline, reference compound]
Escherichia coli JM101
  MIC: 1 µg/mL
[3]
  MIC: 0.25 µg/mL
S. aureus
  Lytic activity (OD600 over time): not the case

## OC(Cn1cncn1)(Cn1cncn1)c1ccc(F)cc1F [Fluconazole, reference compound]
[1]
  MIC: 60 µg/mL
[2]
  MIC: 10 µg/mL
Yeast cells; 30-fold the MIC
  Intracellular ATP level relative to untreated cells: very reduced

## CCCCCCCCCCCCOS(=O)(=O)[O-].[Na+] [SDS]
Yeast cells; 0.1% (w/v)
  Intracellular ATP level relative to untreated cells: 50–70%
